Test results as given in US10364233B2, “Piperidine derivative and methods of use thereof” (vTv Therapeutics LLC, priority 2016, dated 2019).
Like-named read-outs stand apart in the source and are kept apart here.

Columns and labels:
[1] = target: sRAGE (β-amyloid as the RAGE ligand) (Homo sapiens, UniProt Q15109); experiment: General binding assay: inhibition of sRAGE binding to plate-bound β-amyloid; conditions: n = 11, hydrochloride salt
Protocol: (§1) The following is one potential method for screening. S100b or β-amyloid (500 ng/100 μL/well) in 100 mM sodium bicarbonate/sodium carbonate buffer (pH 9.8) is loaded onto the wells of a NUNC Maxisorp flat bottom 96-well microtitre plate. The plate is incubated at 4° C. overnight. The wells are aspirated and treated with 50 mM imidazole buffer saline (pH 7.2) (with 5 mM CaCl2)/MgCl2) containing 1% bovine serum albumin (BSA) (300 μL/well) for 1 h at RT. The wells are aspirated.
(§2) The test compound is dissolved in nanopure water (concentration: 10-100 μM). DMSO may be used as co-solvent. 25 μL of test compound solution in 4% DMSO is added, along with 75 μL sRAGE (6 nM FAC) to each well and samples are incubated for 1 h at 37° C. The wells are washed several times with 155 mM NaCl pH 7.2 buffer saline and are soaked for several seconds between each wash.
(§3) Non-Radioactive Detection is Performed by Adding:
(§4) 10 μL Biotinylated goat F(ab′)2 Anti-mouse IgG. […]
(§5) 100 μL of complex is added to each well and incubation is allowed to proceed at rt for 1 h. […] The reaction is quenched with 10 μL of stop solution (0.5-1.0 N NaOH in 50% ethanol) and the absorbance is measured spectrophotometrically with a microplate reader at 405 nm. […]

[2] = tested on: S100b mediated TNF release from THP-1 cells (RAGE signaling); experiment: Functional assay: inhibition of S100b mediated TNF release from THP-1 cells; format: cell-based; conditions: Homo sapiens; THP-1 cells stimulated with bovine S100b; TNF-alpha by ELISA after 24 hours; hydrochloride salt
Protocol: Previously the literature has cited that THP-1 cells in response to RAGE ligands secrete TNF alpha (Yeh C-H, et al. Diabetes. Vol. 50, June 2001, pp. 1495-1504). The following assay method may be used to identify compounds of Formula (I) or pharmaceutically acceptable salts thereof which are useful as antagonists of RAGE signaling.
The myeloid cell line, THP-1 (ATTC # TIB-202), is cultured in RPMI-1640 media (ATCC, Cat #30-2001) supplemented with fetal bovine serum to a final concentration of 10% by volume and Penicillin-Streptomycin (Gibco, Cat #0.15140-122). Alternatively, media may be formulated using RPMI 1640 (Bio-Whitaker #12-702F) supplemented with 2 mM L-glutamine (Gibco #12381-018) adjusted to contain 1.5 g/L sodium bicarbonate (Gibco #25080-094), 4.5 g/L glucose, 10 mM HEPES (Cellgro #25-060-L1) and 1.0 mM sodium pyruvate (Gibco #11360-070) and supplemented with 0.05 mM 2-mercaptoethanol, […] per ATCC instructions. During culture, the culture cells may be maintained at a density between 5×10^4 and 1×10^6 viable cells/mL. […]
The amount of TNF-alpha secreted by the THP-1 cells may be measured 24 hours after the addition of the stimulant proteins to the cell culture using a commercially available ELISA kit (R&D Systems, Minneapolis, Minn. # DY210). […] The plate may be read at 450 nm within 30 minutes. […]

[3] = target: sRAGE (S100b as the RAGE ligand) (Homo sapiens, UniProt Q15109); experiment: General binding assay: inhibition of sRAGE binding to plate-bound S100b; conditions: n = 13, hydrochloride salt
Protocol: as §1, §2, §3, §4, §5

Sequence of UniProt Q15109 (Q15109 23-342 limits assumed): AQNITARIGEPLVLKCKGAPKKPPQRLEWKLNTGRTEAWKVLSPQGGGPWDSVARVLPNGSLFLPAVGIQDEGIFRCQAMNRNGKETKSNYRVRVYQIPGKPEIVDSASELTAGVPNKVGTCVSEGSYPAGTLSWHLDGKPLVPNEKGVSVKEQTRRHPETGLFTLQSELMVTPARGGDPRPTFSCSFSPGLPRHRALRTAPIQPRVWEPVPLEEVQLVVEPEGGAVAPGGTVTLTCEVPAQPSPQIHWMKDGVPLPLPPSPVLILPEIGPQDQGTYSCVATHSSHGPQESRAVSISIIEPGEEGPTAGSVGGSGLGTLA
Sequence of UniProt Q15109 (Q15109 23-342 limits assumed): as above

IC50 ([1]; average, read-out: IC50 (β-amyloid) average): 0.4 µM | IC50 ([1]; range of individual determinations, read-out: IC50 (β-amyloid)): 0.27 to 0.6 µM | IC50 [2]: ~0.5 µM | IC50 ([3]; average, read-out: IC50 (S100b) average): 0.42 µM | IC50 ([3]; range of individual determinations, read-out: IC50 (S100b)): 0.22 to 0.62 µM
SMILES: Cc1nn(C2CCCCC2)c(C)c1S(=O)(=O)N1CCC(CN(CC(C)C)S(=O)(=O)c2ccc(CNCC3CCNCC3)cc2)(c2ccccc2)CC1 [compound of Formula (I), N-[1-(1-Cyclohexyl-3,5-dimethyl-1H-pyrazole-4-sulfonyl)-4-phenyl-piperidin-4-ylmethyl]-N-isobutyl-4-{[(piperidin-4-ylmethyl)-amino]-methyl}-benzenesulfonamide]
